We go through three molecules from ChEMBL document CHEMBL3860091, “Synthesis and activity of newly designed aroxyalkyl or aroxyethoxyethyl derivatives of piperazine on the cardiovascular and the central nervous systems” (Bioorg Med Chem Lett, 2016).

Assay [1] is described as follows: Antidepressant-like activity in mouse assessed as immobility time at 10 mg/kg, ip by tail suspension test (reference value: 154.2 +/- 10.2 sec). The assay is classed as functional, organism-based.
The nature of assay [2]: Antidepressant-like activity in mouse assessed as immobility time at 5 mg/kg, ip by tail suspension test (reference value: 154.2 +/- 10.2 sec). It counts as functional, organism-based.
Assay [3] addresses T1, Adrenergic receptor alpha-1 (Rattus norvegicus, UniProt P15823+P23944+P43140).
T1 sequence (P15823 whole entry): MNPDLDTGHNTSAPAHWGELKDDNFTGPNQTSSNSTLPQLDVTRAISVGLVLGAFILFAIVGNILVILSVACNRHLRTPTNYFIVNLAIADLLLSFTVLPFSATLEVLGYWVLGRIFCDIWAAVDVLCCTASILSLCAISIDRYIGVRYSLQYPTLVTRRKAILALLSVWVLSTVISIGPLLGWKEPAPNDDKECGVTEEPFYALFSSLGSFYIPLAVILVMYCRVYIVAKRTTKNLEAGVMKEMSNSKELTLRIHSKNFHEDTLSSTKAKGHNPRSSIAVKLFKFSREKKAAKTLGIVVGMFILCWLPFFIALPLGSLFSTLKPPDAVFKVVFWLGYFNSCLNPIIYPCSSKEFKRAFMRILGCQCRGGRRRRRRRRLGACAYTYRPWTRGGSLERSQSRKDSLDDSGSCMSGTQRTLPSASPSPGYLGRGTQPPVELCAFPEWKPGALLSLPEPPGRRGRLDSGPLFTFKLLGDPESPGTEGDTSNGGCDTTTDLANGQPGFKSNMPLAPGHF
T1 sequence (P23944 whole entry): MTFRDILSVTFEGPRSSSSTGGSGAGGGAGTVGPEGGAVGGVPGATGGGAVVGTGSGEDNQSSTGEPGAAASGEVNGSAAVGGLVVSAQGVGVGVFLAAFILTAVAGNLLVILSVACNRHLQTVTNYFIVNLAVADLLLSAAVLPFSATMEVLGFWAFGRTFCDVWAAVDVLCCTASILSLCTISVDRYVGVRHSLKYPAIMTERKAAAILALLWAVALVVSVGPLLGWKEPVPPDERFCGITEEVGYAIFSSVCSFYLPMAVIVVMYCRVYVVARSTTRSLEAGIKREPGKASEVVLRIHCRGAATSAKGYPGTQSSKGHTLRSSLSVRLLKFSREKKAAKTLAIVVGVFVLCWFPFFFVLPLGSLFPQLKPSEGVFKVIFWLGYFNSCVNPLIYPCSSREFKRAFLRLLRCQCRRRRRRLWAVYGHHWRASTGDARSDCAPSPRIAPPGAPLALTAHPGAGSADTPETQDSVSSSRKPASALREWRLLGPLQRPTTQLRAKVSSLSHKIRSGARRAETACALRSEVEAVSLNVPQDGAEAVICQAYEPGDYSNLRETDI
T1 sequence (P43140 whole entry): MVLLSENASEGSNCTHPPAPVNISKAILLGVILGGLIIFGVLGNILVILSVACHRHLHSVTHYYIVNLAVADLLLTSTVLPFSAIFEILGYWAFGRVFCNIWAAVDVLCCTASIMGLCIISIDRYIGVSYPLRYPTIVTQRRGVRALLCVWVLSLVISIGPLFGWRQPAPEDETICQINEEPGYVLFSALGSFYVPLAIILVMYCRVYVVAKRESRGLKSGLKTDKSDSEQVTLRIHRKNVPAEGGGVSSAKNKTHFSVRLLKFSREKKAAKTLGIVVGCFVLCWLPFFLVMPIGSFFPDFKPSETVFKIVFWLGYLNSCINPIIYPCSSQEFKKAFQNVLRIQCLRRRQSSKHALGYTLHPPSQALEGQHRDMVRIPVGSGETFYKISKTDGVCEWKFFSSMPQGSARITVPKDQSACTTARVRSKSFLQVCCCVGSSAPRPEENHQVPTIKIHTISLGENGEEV
Put plainly: Antagonist activity at alpha1 adrenergic receptor in rat aorta assessed as inhibition of phenylephrine-induced aortic contraction.

The species named for another assay is Rattus norvegicus. In words: Selectivity ratio of Ki for rat brain cerebral cortex alpha2 adrenergic receptor to Ki for rat brain cerebral cortex alpha1 adrenergic receptor.
In assay [4] the target is T1, Adrenergic receptor alpha-1. Put plainly: Displacement of [3H]prazosin from alpha1 adrenergic receptor in rat brain cerebral cortex. It counts as tissue-based.

Regarding `CN(C)CCCN1c2ccccc2CCc2ccccc21`, the TIME in assay [1] was 0.0283 h; in assay [2], 0.0363 h.
With `COc1ccccc1N1CCN(CCCOc2cccc(C)c2C)CC1.Cl`, the pA2 in assay [3] turned out to be 8.534. Moreover, in the assay listed under Rattus norvegicus, the Ratio Ki stood at 13.3. Also, the inhibition constant Ki in assay [4] is 2.8 nM.
Turning to `COc1ccccc1N1CCN(CCCOc2c(C)cccc2C)CC1.Cl`, the pA2 in assay [3] is recorded as 8.807. For the same molecule, the Ratio Ki in the assay filed under Rattus norvegicus came out at 142. The inhibitory constant (Ki) in assay [4] worked out at 2.4 nM.
